Source: patent US10258073B2, “Functional nutritional blend for thermo-metabolic performance” (priority 2016, dated 2019)

System: Mouse 3T3-L1 pre adipocytes
Assay: Cell viability by Sulforhodamine B (SRB) assay
Type: cell-based
Details: 72 h
Procedure: Cell culture: Mouse immortalised 3T3-L1 pre adipocytes were cultured in 5% CO2 at 37° C. in growth media consisting of Dulbecco's Modified Eagles Medium (DMEM) containing 10% heat-inactivated fetal calf serum with 40 μg/mL of gentamycin 5×10^3 cells were seeded per well in a 96 well plate and allowed to grow as a confluent monolayer.
Mouse 3T3-L1 pre adipocytes were cultured in DMEM containing 10% heat-inactivated foetal calf serum. 5000 cells were seeded in 96 well culture plates and allowed to form adhere and form a monolayer. Test compounds were added at different concentrations and incubated for 72 hours at 37° C. and 5% CO2. Cells were fixed using 10% trichloroacetic acid (TCA) solution at 4° C. for one hour. SRB solution (0.4%) was added to the wells and incubated for 30 minutes at room temperature. Excess dye was washed 5 times with 1% acetic acid. 100 μl of 10 mM trizma base was added to the wells to solubilize the SRB. Absorbance was read using a microplate reader at a wave length of 492 nm. The absorbance of cells with growth media was considered as 100% viable and percentage viability was calculated based on this reading.

## O=C(/C=C/C=C/c1ccc2c(c1)OCO2)N1CCCCC1 [Piperine]
  Non-toxic concentration: 25 µg/mL
